One may read the Km as the substrate concentration at which the rate is half of its maximum.

This experiment has as its system T1, Epimedium flavonoid-glycosidase.
T1 construct: native secreted enzyme purified from culture supernatant (DEAE-cellulose DE-52)
The experiment can be described thus: TLC scanning of substrate and products, Lineweaver-Burk plot. To be noted: 0.02 M acetate buffer pH 5.0, 40°C; icariin 12.5-50 mM. The class given is biochemical, Aspergillus sp. y848.

As for `COc1ccc(-c2oc3c(CC=C(C)C)c(O[C@@H]4O[C@H](CO)[C@@H](O)[C@H](O)[C@H]4O)cc(O)c3c(=O)c2O[C@@H]2O[C@@H](C)[C@H](O)[C@@H](O)[C@H]2O)cc1` [icariin], the Michaelis constant (Km) was 15.6 mM.

The values above are taken from article PMC9628809, “Icaritin Preparation from Icariin by a Special Epimedium Flavonoid-Glycosidase from Aspergillus sp.y848 Strain” (Journal of Microbiology and Biotechnology, 2022).
